Where two headings read alike, the source gives them in different places.
Tested on: AP-1 induced transcriptional activity
Experiment: Cellular Transrepressional Assay (AP-1 luciferase reporter, PMA-activated A549 cells)
Format: cell-based
Settings: for Emax: A549, 7 h, read-out: AP-1 Max % inh (Cellular Transrepression Assay); for Emax / AP-1 Max % inh (Cellular Transrepression Assay): maximum inhibition
Experimental: Cellular Transrepressional Assay
To measure the ability of test molecules to inhibit AP-1 induced transcriptional activity we utilized an A549 cell which was stably transfected with a plasmid containing 7× AP-1 DNA binding sites (pAP-1-Luc plasmid, Stratagene Co. La Jolla, Calif.) followed by the gene for luciferase. Cells were activated with 10 ng/ml of […] (PMA) plus or minus test molecules for 7 hours. After 7 hours a luciferase reagent was added to measure luciferase enzymatic activity in the cell. After a 10 minute incubation of luciferase reagent with cells, luminescence was measured in a TopCount luminescence counter. Repression of AP-1 activity was calculated as the percentage decrease in the signal induced by PMA alone. Test molecules were analyzed in the concentration range from 0.1 nM to 40 μM. EC50s were determined by using standard curve fitting methods such as Excel fit (Microsoft Co.).

[1] = Homo sapiens, Cellular Transrepression Assay
[2] = Homo sapiens, A549, Cellular Transrepression Assay

| SMILES | Emax [1] | EC50 [2] | EC50 (Cellular Transrepression Assay) | AP-1 Max % inh (Cellular Transrepression Assay) (Cellular Transrepression Assay) | EC50 (Homo sapiens, A549, read-out: AP-1 EC50, nM (Cellular Transrepression Assay)) |
| --- | --- | --- | --- | --- | --- |
| CCN(C)C(=O)c1ccc(-c2ccc3c(n2)Oc2ccccc2[C@@H]3C(C)(C)C(=O)Nc2nnc(C)s2)cc1 [Example 464] | 54% | 18.2 nM |  |  |  |
| CC(C)(C(=O)Nc1nncs1)C1c2ccccc2Oc2nc(-c3ccc(C(F)(F)F)cc3)ccc21 (stereo not shown) [Example 182] |  |  | 109 nM | 33.12% |  |
| CC(C)(C(=O)Nc1nncs1)C1c2ccccc2Oc2cc(OC(=O)NCCc3cccs3)ccc21 (stereo not shown) [Example 376] |  |  | 34.4 nM | 45.09% |  |
| CSc1ccc(-c2ccc3c(n2)Oc2ccccc2C3C(C)(C)C(=O)Nc2nncs2)cc1 (stereo not shown) [Example 199] |  |  | 27.6 nM | 48.94% |  |
| Cc1nnc(NC(=O)C(C)(C)[C@H]2c3ccccc3Oc3nc(-c4ccc(C(=O)N5CCC(F)(F)C5)cc4)ccc32)s1 [Example 466] | 56.1% | 28.2 nM |  |  |  |
| CC(C)(C(=O)Nc1nc(-c2ccc(F)c3ccccc23)c[nH]1)C1c2ccccc2Oc2ccccc21 [Example 38] | 70.4% |  |  |  |  |
| CC(C)(C(=O)Nc1nncs1)[C@H]1c2ccccc2Oc2cc(O)ccc21 [Example 90] | 59.5% | 6.43 nM |  |  |  |
| CCCCc1ccc(-c2ccc3c(n2)Oc2ccccc2C3C(C)(C)C(=O)Nc2nncs2)c(C)c1 (stereo not shown) [Example 222] |  |  | 100 nM | 61.88% |  |
| CC(=O)c1ccc(-c2ccc3c(n2)Oc2ccccc2[C@@H]3C(C)(C)C(=O)Nc2nncs2)s1 [Example 452] | 53.4% | 11.1 nM |  |  |  |
| CC(C)(O)c1ccc(-c2ccc3c(n2)Oc2ccccc2[C@@H]3C(C)(C)C(=O)NC#N)cc1 [Example 399] | 69.3% | 333 nM |  |  |  |
| CNC(=O)c1nnc(NC(=O)C(C)(C)[C@H]2c3ccccc3Oc3nc(-c4ccc(C(=O)N5CCOCC5)cc4)ccc32)s1 [Example 422] | 50.5% | 51.5 nM |  |  |  |
| CC(C)(C(=O)Nc1nncs1)C1c2ccccc2Oc2cc(NC(=O)OCc3ccccc3)ccc21 (stereo not shown) [Example 119] | 45.3% | 83 nM |  |  |  |
| CC(C)(C)NC(=O)Oc1ccc2c(c1)Oc1ccccc1C2C(C)(C)C(=O)Nc1nncs1 (stereo not shown) [Example 382] | 47.2% | 206 nM |  |  |  |
| CN(C)C(=O)c1cnc(-c2ccc3c(c2)Oc2ccccc2C3C(C)(C)C(=O)Nc2nncs2)nc1 (stereo not shown) [Example 109] | 60.2% | 182 nM |  |  |  |
| CN(C)C(=O)c1ccc(-c2ccc3c(n2)Oc2ccccc2C3C(C)(C)C(=O)Nc2ncns2)cc1 (stereo not shown) [Example 441] | 52.4% | 63.9 nM |  |  |  |
| O=C(CC1c2ccccc2Sc2ccccc21)Nc1nc(-c2ccc(F)c3ccccc23)cs1 [Example 26] | 26.9% |  |  |  |  |
| CC(C)S(=O)(=O)c1ccc(-c2ccc3c(n2)Oc2ccccc2C3C(C)(C)C(=O)Nc2nncs2)cc1 (stereo not shown) [Example 228] |  |  | 51.5 nM | 28.32% |  |
| O=C(CC1c2ccccc2Oc2ccccc21)Nc1nc(Cc2ccc(-c3ccncc3)cc2)cs1 [Example 1] | 69.3% | 157 nM |  |  |  |
| CCNC(=O)Oc1ccc2c(c1)Oc1ccccc1C2C(C)(C)C(=O)Nc1nncs1 (stereo not shown) [Example 387] | 52.5% | 82 nM |  |  |  |

| SMILES | Emax [1] | EC50 [2] | EC50 (Cellular Transrepression Assay) | AP-1 Max % inh (Cellular Transrepression Assay) (Cellular Transrepression Assay) | EC50 (Homo sapiens, A549, read-out: AP-1 EC50, nM (Cellular Transrepression Assay)) |
| --- | --- | --- | --- | --- | --- |
| CC(C)(C(=O)Nc1ncc(C#N)s1)[C@H]1c2ccccc2Oc2nc(-c3ccc(C(=O)N4CCCC4)c(F)c3)ccc21 [Example 410] | 48.1% | 53.3 nM |  |  |  |
| CCN(C)C(=O)c1ccc(-c2ccc3c(n2)Oc2ccccc2C3C(C)(C)C(=O)Nc2nncs2)cc1 (stereo not shown) [Example 251] |  |  | 17.4 nM | 54.92% |  |
| CC(C)(C(=O)Nc1nncs1)[C@H]1c2ccccc2Oc2nc(-c3ccc(O)c(F)c3)ccc21 [Example 223] |  |  | 839 nM | 27.87% |  |
| CC(C)(C(=O)Nc1ncc([N+](=O)[O-])s1)[C@H]1c2ccccc2Oc2nc(-c3ccc(C(=O)N4CCCC4)c(F)c3)ccc21 [Example 411] | 58.5% | 161 nM |  |  |  |
| CC(C)(C(=O)Nc1nncs1)[C@H]1c2ccccc2Oc2nc(-c3ccc(C(=O)N4CCC[C@@H]4CO)c(F)c3)ccc21 [Example 344] | 44.5% | 39.6 nM |  |  |  |
| CN(C)C(=O)c1ccc(-c2ccc3c(n2)Oc2ccccc2C3C(C)(C)C(=O)NC2=NCCS2)cc1 (stereo not shown) [Example 442] | 50.1% | 127 nM |  |  |  |
| CC(C)(C(=O)Nc1nncs1)C1c2ccccc2Oc2nc(N3CCOCC3)ccc21 (stereo not shown) [Example 129] | 39.5% | 307 nM |  |  |  |
| CC(C)(C(=O)Nc1nc(-c2cccc3ccccc23)cs1)C1c2ccccc2Cc2ccccc21 [Example 15] | 65.9% | 501 nM |  |  |  |
| Cc1nsc(NC(=O)C(C)(C)[C@H]2c3ccccc3Oc3nc(-c4ccc(C(=O)N(C)C)cc4)ccc32)n1 [Example 449] | 48.9% | 126 nM |  |  |  |
| O=C(CC1c2ccccc2Sc2ccccc21)Nc1nc(-c2cccc3ccccc23)cs1 [Example 28] | 43.7% |  |  |  |  |
| CC(C)(C(=O)Nc1nncs1)C1c2ccccc2Oc2cc(OC(=O)NCc3ccco3)ccc21 (stereo not shown) [Example 393] |  |  | 53.4 nM | 43.80% |  |
| CC(C)(C)c1ccc(-c2ccc3c(n2)Oc2ccccc2C3C(C)(C)C(=O)Nc2nncs2)cc1 (stereo not shown) [Example 207] |  |  | 32.6 nM | 37.96% |  |
| CC(C)C(O)c1ccc(-c2ccc3c(n2)Oc2ccccc2[C@@H]3C(C)(C)C(=O)Nc2nncs2)cc1 (stereo partly shown) [Example 240] | 61.7% | 51.9 nM |  |  |  |
| Cc1csc(NC(=O)C(C)(C)[C@H]2c3ccccc3Oc3cc(O)ccc32)n1 [Example 88] | 49.2% | 128 nM |  |  |  |
| CCNC(=O)c1nnc(NC(=O)C(C)(C)[C@H]2c3ccccc3Oc3nc(-c4ccc(C(=O)N5CCCC5)c(F)c4)ccc32)s1 [Example 421] | 42.6% | 49.8 nM |  |  |  |
| CC(C)(C(=O)Nc1nncs1)[C@H]1c2ccccc2Oc2nc(-c3ccc(C4CCCCC4)cc3)ccc21 [Example 221] |  |  | 28.9 nM | 62.97% |  |
| CC(C)(C(=O)Nc1nncs1)[C@H]1c2ccccc2Oc2nc(-c3ccc(CO)s3)ccc21 [Example 470] | 43% | 24.6 nM |  |  |  |
| CC(C)(C(=O)Nc1nncs1)C1c2ccccc2Oc2cc(-c3nn[nH]n3)ccc21 (stereo not shown) [Example 126] | 30.8% | 49.7 nM |  |  |  |
| CC(C)Oc1ccc(-c2ccc3c(c2)Oc2ccccc2C3C(C)(C)C(=O)Nc2nncs2)nc1 (stereo not shown) [Example 105] | 30.5% | 12.2 nM |  |  |  |

| SMILES | Emax [1] | EC50 [2] | EC50 (Cellular Transrepression Assay) | AP-1 Max % inh (Cellular Transrepression Assay) (Cellular Transrepression Assay) | EC50 (Homo sapiens, A549, read-out: AP-1 EC50, nM (Cellular Transrepression Assay)) |
| --- | --- | --- | --- | --- | --- |
| CC(C)(C(=O)Nc1nc(Cc2ccc(-c3ccncc3)cc2)cs1)C1c2ccccc2CCc2ccccc21 [Example 24] | 78.8% | 15.7 nM |  |  |  |
| CCc1ccc(-c2ccc3c(n2)Oc2ccccc2C3C(C)(C)C(=O)Nc2nncs2)cc1 (stereo not shown) [Example 206] |  |  | 21.3 nM | 54.73% |  |
| CNC(=O)Oc1ccc2c(c1)Oc1ccccc1C2C(C)(C)C(=O)Nc1nncs1 (stereo not shown) [Example 386] | 34.3% |  |  |  | 89 nM |
| CC(C)(C(=O)Nc1ncns1)[C@H]1c2ccccc2Oc2nc(-c3ccc(C(=O)N4CCCC4)c(F)c3)ccc21 [Example 456] | 45.8% | 41.5 nM |  |  |  |
| CCCCOc1ccc(-c2ccc3c(n2)Oc2ccccc2C3C(C)(C)C(=O)Nc2nncs2)cc1 (stereo not shown) [Example 210] |  |  | 77.7 nM | 39.38% |  |
| COc1ccc(CNC(=O)Oc2ccc3c(c2)Oc2ccccc2C3C(C)(C)C(=O)Nc2nncs2)cc1 (stereo not shown) [Example 391] |  |  | 52 nM | 44.08% |  |
| CNC(=O)c1ccc(-c2ccc3c(n2)Oc2ccccc2[C@@H]3C(C)(C)C(=O)Nc2nncs2)cc1 [Example 348] | 34.4% | 300 nM |  |  |  |
| CC(C)(C(=O)Nc1nccs1)C1c2ccccc2-c2ccccc21 [Example 18] | 37.6% | 542 nM |  |  |  |
| CC(C)(C(=O)Nc1nc(Cc2ccc(-c3cn[nH]c3)cc2)cs1)C1c2ccccc2Oc2ccccc21 [Example 41] | 73.8% | 5.82 nM |  |  |  |
| CC(C)(C(=O)Nc1nncs1)[C@H]1c2ccccc2Oc2nc(-c3ccc(C(=O)N4CCC(F)(F)C4)cc3)ccc21 [Example 314] | 69.8% | 18 nM |  |  |  |
| CC(C)(C(=O)Nc1nc(Cc2ccc(Br)cc2)cs1)C1c2ccccc2Oc2ccccc21 [Example 35] | 72.3% | 80.6 nM |  |  |  |
| CC(C)(C(=O)Nc1nncs1)C1c2ccccc2Oc2cc(OC(=O)NCCc3ccc(F)cc3)ccc21 (stereo not shown) [Example 381] |  |  | 45.2 nM | 52.00% |  |
| CN(C)C(=O)c1ccc(-c2ccc3c(c2)Oc2ccccc2C3C(C)(C)C(=O)Nc2nncs2)nc1 (stereo not shown) [Example 102] | 45% | 58 nM |  |  |  |
| CC(C)Oc1ccc(-c2ccc3c(n2)Oc2ccccc2C3C(C)(C)C(=O)Nc2nncs2)cc1 (stereo not shown) [Example 209] |  |  | 14.3 nM | 50.21% |  |
| CCCc1ccc(-c2ccc3c(n2)Oc2ccccc2C3C(C)(C)C(=O)Nc2nncs2)cc1 (stereo not shown) [Example 205] |  |  | 8.5 nM | 57.72% |  |
| COc1ccc(Cc2csc(NC(=O)C(C)(C)C3c4ccccc4Oc4nc(OC)ccc43)n2)cc1 (stereo not shown) [Example 77] | 73.9% | 91.6 nM |  |  |  |
| CC(C)(C(=O)Nc1nncs1)C1c2ccccc2Oc2cc(/C(N)=N\O)ccc21 (stereo not shown) [Example 115] | 31.3% | 3.9 nM |  |  |  |
| CSc1nnc(NC(=O)C(C)(C)[C@H]2c3ccccc3Oc3nc(-c4ccc(C(=O)N5CCCC5)c(F)c4)ccc32)s1 [Example 425] | 49.9% | 84.4 nM |  |  |  |

— patent US8034940B2, “Modulators of glucocorticoid receptor, AP-1, and/or NF-κB activity and use thereof” (Bristol-Myers Squibb Company, priority 2006, dated 2011)
